# Key:
# [1] = target: T1, Protein farnesyltransferase (Mus musculus, UniProt Q61239+Q8K2I1); experiment: Effective concentration against H-ras processing in transformed NIH3T3 cells; assay type: functional, cell-based
# [2] = target: Protein farnesyltransferase (Bos taurus, UniProt P29702+P49355); experiment: Inhibition of Bovine farnesyl transferase; assay type: protein-complex assay
# [3] = target: Geranylgeranyl transferase type I (Bos taurus, UniProt P29702+Q5EAD5); experiment: Inhibition of Bovine geranylgeranyl transferase; assay type: protein-complex assay
# [4] = target: T1, Protein farnesyltransferase; experiment: Inhibition of H-ras processing in transformed NIH3T3 cells
# [5] = species on record: Bos taurus; experiment: Selectivity for Bovine farnesyl transferase over geranylgeranyl transferase
# [6] = target: Protein farnesyltransferase (Homo sapiens, UniProt P49354+P49356); experiment: Inhibition of Farnesyl transferase inhibitor (ABT-839); assay type: protein-complex assay
# [7] = target: T1, Protein farnesyltransferase; experiment: Effective concentration against H-ras processing in NIH 3T3 cells; assay type: functional, cell-based, NIH3T3
# [8] = target: Protein farnesyltransferase (Bos taurus) (UniProt P29702+P49355); experiment: Percentage inhibition of Bovine farnesyl transferase at 100 nM; assay type: protein-complex assay
Compound,EC50 [1] [nM],IC50 [2] [nM],IC50 [3] [nM],further results
Cn1cncc1C(OCc1ccc(C#N)c(N2CCCC(O)C2)n1)c1ccc(C#N)c(-c2ccccc2C(F)(F)F)c1 (stereo not drawn),13,1.3,1400,–
Cn1cncc1C(OCc1ccc(C#N)cc1)c1ccc(C#N)c(-c2ccc(Cl)cc2Cl)c1 (stereo not drawn),> 1000,47,–,–
Cn1cncc1C(OCc1ccc(Cl)c(Cl)c1)c1ccc(C#N)c(-c2ccccc2C(F)(F)F)c1 (stereo not drawn),–,1.7,72,–
Cc1ccccc1-c1cc(C(OCc2cc(Cl)cc(Cl)c2)c2cncn2C)ccc1C#N (stereo not drawn),–,19,–,–
Cc1ccccc1-c1cc(C(OCc2cccc(Br)c2)c2cncn2C)ccc1C#N (stereo not drawn),–,13,–,–
Cn1cncc1C(OCc1ccc(C#N)cc1)c1ccc(C#N)c(-c2cc3ccccc3s2)c1 (stereo not drawn),–,160,–,–
Cc1ccccc1-c1cc(C(OCc2ccccc2Br)c2cncn2C)ccc1C#N (stereo not drawn),–,–,–,inhibition [2]: 65%
Cn1cncc1C(OCc1ccc(C#N)c(N2CCC(O)C2)n1)c1ccc(C#N)c(-c2ccccc2C(F)(F)F)c1 (stereo not drawn),120,3.5,970,–
Cc1ccccc1-c1cc(C(OCc2ccccc2F)c2cncn2C)ccc1C#N (stereo not drawn),–,70,–,–
Cc1ccccc1-c1cc(C(OCc2cccc(OC(F)(F)F)c2)c2cncn2C)ccc1C#N (stereo not drawn),–,8.3,–,–
COC(=O)c1ccc(COC(c2ccc(C#N)c(-c3ccccc3C(F)(F)F)c2)c2cncn2C)nc1 (stereo not drawn),–,9,3900,inhibition [4]: 83%
Cc1ccccc1-c1cc(C(OCc2cccc3cccnc23)c2cncn2C)ccc1C#N (stereo not drawn),–,59,–,–
CCCCN(CCC1CCCCC1)Cc1ccc(C(=O)N[C@@H](CCSC)C(=O)O)c(-c2ccccc2C)c1,–,–,–,Selectivity [5]: 75000
Cn1cncc1C(OCc1ccc(C#N)c(NCC2CCCO2)n1)c1ccc(C#N)c(-c2ccccc2C(F)(F)F)c1 (stereo not drawn),285,7.5,2400,IC50 [6]: 1.1 nM
Cc1ccccc1-c1cc(C(OCc2ccccc2)c2cncn2C)ccc1C#N (stereo not drawn),–,84,1300,EC50 [7]: 2700 nM; Selectivity [5]: 16
CN1CCN(c2nc(COC(c3ccc(C#N)c(-c4ccccc4C(F)(F)F)c3)c3cncn3C)ccc2C#N)CC1 (stereo not drawn),53,1.2,2600,–
Cn1cncc1C(OCc1ccc(C#N)c(N2CCC[C@@H]2CO)n1)c1ccc(C#N)c(-c2ccccc2C(F)(F)F)c1 (stereo partly drawn),170,2,920,–
Cc1ccccc1-c1cc(C(OCc2ccccc2[N+](=O)[O-])c2cncn2C)ccc1C#N (stereo not drawn),–,33,–,–
Cn1cncc1C(OCc1ccc(C#N)c(N2CCN(CCO)CC2)n1)c1ccc(C#N)c(-c2ccccc2C(F)(F)F)c1 (stereo not drawn),30,1.3,2000,–
Cc1ccccc1-c1cc(C(OCc2cccc(C(F)(F)F)c2)c2cncn2C)ccc1C#N (stereo not drawn),–,8.1,–,–
Cn1cncc1C(OCc1ccc(C#N)c(N2CCOCC2)n1)c1ccc(C#N)c(-c2ccccc2C(F)(F)F)c1 (stereo not drawn),89,1.3,1200,–
Cc1ccccc1-c1cc(C(OCc2ccc3ccccc3c2)c2cncn2C)ccc1C#N (stereo not drawn),–,–,–,inhibition [8]: 76%
Cn1cncc1C(OCc1ccc(C#N)cc1)c1ccc(C#N)c(-c2ccccc2C(=O)O)c1 (stereo not drawn),> 1000,14,–,–

Compound,EC50 [1] [nM],IC50 [2] [nM],IC50 [3] [nM],further results
Cc1ccccc1-c1cc(C(OCc2ccc(S(C)(=O)=O)cc2)c2cncn2C)ccc1C#N (stereo not drawn),–,38,–,–
Cc1ccccc1-c1cc(C(OCc2ccc(Cl)c(Cl)c2)c2cncn2C)ccc1C#N (stereo not drawn),–,27,–,–
Cn1cncc1C(OCc1ccc(C#N)c(NCC2CCOC2)n1)c1ccc(C#N)c(-c2ccccc2C(F)(F)F)c1 (stereo not drawn),201,7.7,2200,–
Cc1ccccc1COC(c1ccc(C#N)c(-c2ccccc2C)c1)c1cncn1C (stereo not drawn),–,54,–,–
CC(=O)NC1CCN(c2nc(COC(c3ccc(C#N)c(-c4ccccc4C(F)(F)F)c3)c3cncn3C)ccc2C#N)C1 (stereo not drawn),330,1.7,1600,–
Cc1ccccc1-c1cc(C(OCc2ccccc2Cl)c2cncn2C)ccc1C#N (stereo not drawn),–,48,–,–
Cn1cncc1C(OCc1ccc(C#N)c(NCc2cccc(F)c2)n1)c1ccc(C#N)c(-c2ccccc2C(F)(F)F)c1 (stereo not drawn),–,10,750,–
Cn1cncc1C(OCc1ccc(C#N)cc1)c1ccc(C#N)c(-c2ccccc2C=O)c1 (stereo not drawn),110,1.9,–,–
Cc1cccc(COC(c2ccc(C#N)c(-c3ccccc3C)c2)c2cncn2C)c1 (stereo not drawn),–,61,–,–
Cc1ccccc1-c1cc(C(OCc2cccc3ccccc23)c2cncn2C)ccc1C#N (stereo not drawn),–,17,–,–
Cc1ccccc1-c1cc(C(OCc2ccc(Cl)cc2)c2cncn2C)ccc1C#N (stereo not drawn),–,11,–,–
Cc1ccccc1-c1cc(C(OCc2ccc(F)cc2)c2cncn2C)ccc1C#N (stereo not drawn),–,32,–,–
Cc1ccccc1-c1cc(C(OCc2cnc(Cl)c(Cl)c2)c2cncn2C)ccc1C#N (stereo not drawn),–,15,–,–
Cn1cncc1C(OCc1ccc(C#N)c(N2CCC(CO)CC2)n1)c1ccc(C#N)c(-c2ccccc2C(F)(F)F)c1 (stereo not drawn),11,1.8,1400,–
Cn1cncc1C(OCc1ccc(C#N)cc1)c1ccc(C#N)c(-c2cccc3ccccc23)c1 (stereo not drawn),110,–,–,–
Cc1ccccc1-c1cc(C(OCc2noc(-c3ccccc3)n2)c2cncn2C)ccc1C#N (stereo not drawn),–,–,–,inhibition [8]: 56%
Cc1cccc(-c2cc(C(OCc3ccc(C#N)cc3)c3cncn3C)ccc2C#N)c1C (stereo not drawn),> 1000,2.1,130,–
Cn1cncc1C(OCc1ccc(C(F)(F)F)c(F)c1)c1ccc(C#N)c(-c2ccccc2C(F)(F)F)c1 (stereo not drawn),> 1000,6.1,160,–
Cn1cncc1C(OCc1ccc(C#N)cc1)c1ccc(C#N)c(-c2ccccc2CO)c1 (stereo not drawn),–,5.5,480,inhibition [4]: 89%
Cc1ccccc1-c1cc(C(OCc2cc(Cl)nc(Cl)c2)c2cncn2C)ccc1C#N (stereo not drawn),–,13,–,–
COC(=O)c1ccc(COC(c2ccc(C#N)c(-c3ccccc3C)c2)c2cncn2C)o1 (stereo not drawn),–,–,–,inhibition [8]: 50%
Cc1ccccc1-c1cc(C(OCc2ccc([N+](=O)[O-])cc2)c2cncn2C)ccc1C#N (stereo not drawn),–,7.5,–,–

# More lines, main results first:
EC50 [1] [nM],IC50 [2] [nM],IC50 [3] [nM],Compound,further results
–,4,–,Cc1ccccc1-c1cc(C(OCc2ccc(C#N)cc2)c2cncn2C)ccc1C#N (stereo in doubt; 4q),–
210,3.6,680,Cn1cncc1C(OCc1ccc(C#N)c(N2CCC[C@@H]2C(=O)O)n1)c1ccc(C#N)c(-c2ccccc2C(F)(F)F)c1 (stereo partly drawn),–
–,87,–,Cc1ccccc1-c1cc(C(OCc2ccc(C(C)(C)C)cc2)c2cncn2C)ccc1C#N (stereo not drawn),–
240,1.5,85,Cn1cncc1C(OCc1ccc(C#N)cc1)c1ccc(C#N)c(-c2cccc(Cl)c2Cl)c1 (stereo not drawn),–
–,62,–,Cc1ccccc1-c1cc(C(OCc2ccccc2C#N)c2cncn2C)ccc1C#N (stereo not drawn),–
130,2.6,1800,CC(=O)N1CCN(c2nc(COC(c3ccc(C#N)c(-c4ccccc4C(F)(F)F)c3)c3cncn3C)ccc2C#N)CC1 (stereo not drawn),–
–,38,–,Cc1ccccc1-c1cc(C(OCc2cccc(F)c2)c2cncn2C)ccc1C#N (stereo not drawn),–
–,12,–,Cc1ccccc1-c1cc(C(OCc2ccc(Br)cc2)c2cncn2C)ccc1C#N (stereo not drawn),–
85,–,310,Cn1cncc1C(OCc1ccc(C#N)cc1)c1ccc(C#N)c(-c2ccccc2C(F)(F)F)c1 (stereo not drawn),–
–,61,–,COC(=O)c1cccc(COC(c2ccc(C#N)c(-c3ccccc3C)c2)c2cncn2C)c1 (stereo not drawn),–
–,54,–,Cc1ccc(COC(c2ccc(C#N)c(-c3ccccc3C)c2)c2cncn2C)cc1 (stereo not drawn),–
> 1000,9.1,2300,Cn1cncc1C(OCc1ccc(C#N)c(NCCc2ccccc2)n1)c1ccc(C#N)c(-c2ccccc2C(F)(F)F)c1 (stereo not drawn),–
–,51,–,Cc1ccccc1-c1cc(C(OCc2ccc(C(C)C)cc2)c2cncn2C)ccc1C#N (stereo not drawn),–
–,6.1,–,COC(=O)c1ccc(COC(c2ccc(C#N)c(-c3ccccc3C)c2)c2cncn2C)cc1 (stereo not drawn),–
–,59,–,COc1ccc(COC(c2ccc(C#N)c(-c3ccccc3C)c2)c2cncn2C)cc1 (stereo not drawn),–
420,4.8,180,Cc1ccccc1-c1cc(C(OCc2ccc(C#N)cc2)c2cncn2C)ccc1C#N (stereo in doubt; 10a),–
–,19,–,Cc1ccccc1-c1cc(C(OCc2cccc(Cl)c2)c2cncn2C)ccc1C#N (stereo not drawn),–
–,29,–,Cc1ccccc1-c1cc(C(OCc2csc(-c3ccc(Cl)cc3)n2)c2cncn2C)ccc1C#N (stereo not drawn),–
–,20,–,Cc1ccccc1-c1cc(C(OCc2cccc(I)c2)c2cncn2C)ccc1C#N (stereo not drawn),–
–,13,–,Cc1ccccc1-c1cc(C(OCc2ccc(I)cc2)c2cncn2C)ccc1C#N (stereo not drawn),–
90,2.7,1500,Cn1cncc1C(OCc1ccc(C#N)cn1)c1ccc(C#N)c(-c2ccccc2C(F)(F)F)c1 (stereo not drawn),–
–,16,–,Cc1ccccc1-c1cc(C(OCc2ccc(OC(F)(F)F)cc2)c2cncn2C)ccc1C#N (stereo not drawn),–
–,13,–,Cc1ccccc1-c1cc(C(OCc2ccc(-c3ccccc3)cc2)c2cncn2C)ccc1C#N (stereo not drawn),–
–,81,–,Cc1ccccc1-c1cc(C(OCc2c(Cl)cccc2Cl)c2cncn2C)ccc1C#N (stereo not drawn),–
100,4.1,120,Cn1cncc1C(OCc1ccc(F)c(C(F)(F)F)c1)c1ccc(C#N)c(-c2ccccc2C(F)(F)F)c1 (stereo not drawn),–
–,12,–,Cc1ccccc1-c1cc(C(OCc2ccc(C(F)(F)F)cc2)c2cncn2C)ccc1C#N (stereo not drawn),–
